For 13 compounds, remaining activity and IC50 results are on record in PMC8667043, “First-in-Class Inhibitors of the Ribosomal Oxygenase MINA53” (Journal of Medicinal Chemistry, 2021).

What all share (type): biochemical
The target in one test is T1, p300 (Homo sapiens, UniProt Q09472).
T1 construct: purchased Reaction Biology Corporation, Malvern, PA, USA
T1 sequence (Q09472 1284-1673): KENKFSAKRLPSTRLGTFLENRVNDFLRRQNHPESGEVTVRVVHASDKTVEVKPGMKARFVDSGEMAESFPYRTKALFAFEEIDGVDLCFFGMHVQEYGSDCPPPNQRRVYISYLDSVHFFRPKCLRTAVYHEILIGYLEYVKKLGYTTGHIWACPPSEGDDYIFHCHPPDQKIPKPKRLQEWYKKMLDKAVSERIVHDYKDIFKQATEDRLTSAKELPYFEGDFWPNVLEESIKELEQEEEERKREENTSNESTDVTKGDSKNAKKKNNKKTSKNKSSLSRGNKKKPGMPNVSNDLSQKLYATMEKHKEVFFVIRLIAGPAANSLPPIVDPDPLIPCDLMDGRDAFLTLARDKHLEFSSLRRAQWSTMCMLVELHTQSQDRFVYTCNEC
The experiment in a line: HotSpot KAT assay. The note with it: 100 µM; means ± SD of three experiments; read-out: Residual Enzymatic Activity (%) p300. Here is the method: (§1) The ef fects of 1-13 on th e histone lysine acetyltr a nsferas e activity (KAT ) o f p300 and PCAF were
(§2) determined using the HotSpot KAT assay ( Reaction Biology Corporation, Malvern, PA, USA)
(§3) according to the supplier’s procedure. In brief, recombinant form s of catal ytic domains of PCAF
(§4) NaCl, 0.1 mM EDTA, 1 mM DTT, 1 mM PMSF, 1% (v/v) DMSO) fo r 1 h at 30 °C in the presenc e
(§5) or absence of various concentrations of the inhibitors. Histone H3 acetyl ation was assessed by
(§6) liquid scintillation counting using a Tri-Carb 2800TR Liquid Scintillation Analyzer
(§7) (PerkinElmer). Assays at fixed con centration doses were performed in triplicate and analyzed
(§8) using Excel and GraphPad Prism 6.0 software (GraphPad Software Inc., San Diego, CA).

The target of the next test is T2, PCAF (Homo sapiens, UniProt Q92831).
T2 construct: purchased Reaction Biology Corporation, Malvern, PA, USA
The experiment in a line: HotSpot KAT assay. The note with it: means ± SD of three experiments, read-out: Residual Enzymatic Activity (%) PCAF. Here is the method: as §1, §2, §3, §4, §5, §6, §7, §8

The target of another test is T3, KDM3B (Homo sapiens, UniProt Q7LBC6).
T3 construct: (L882- S1761); His6 (N); made in house; host or cells: insect cells
T3 sequence (Q7LBC6 882-1761): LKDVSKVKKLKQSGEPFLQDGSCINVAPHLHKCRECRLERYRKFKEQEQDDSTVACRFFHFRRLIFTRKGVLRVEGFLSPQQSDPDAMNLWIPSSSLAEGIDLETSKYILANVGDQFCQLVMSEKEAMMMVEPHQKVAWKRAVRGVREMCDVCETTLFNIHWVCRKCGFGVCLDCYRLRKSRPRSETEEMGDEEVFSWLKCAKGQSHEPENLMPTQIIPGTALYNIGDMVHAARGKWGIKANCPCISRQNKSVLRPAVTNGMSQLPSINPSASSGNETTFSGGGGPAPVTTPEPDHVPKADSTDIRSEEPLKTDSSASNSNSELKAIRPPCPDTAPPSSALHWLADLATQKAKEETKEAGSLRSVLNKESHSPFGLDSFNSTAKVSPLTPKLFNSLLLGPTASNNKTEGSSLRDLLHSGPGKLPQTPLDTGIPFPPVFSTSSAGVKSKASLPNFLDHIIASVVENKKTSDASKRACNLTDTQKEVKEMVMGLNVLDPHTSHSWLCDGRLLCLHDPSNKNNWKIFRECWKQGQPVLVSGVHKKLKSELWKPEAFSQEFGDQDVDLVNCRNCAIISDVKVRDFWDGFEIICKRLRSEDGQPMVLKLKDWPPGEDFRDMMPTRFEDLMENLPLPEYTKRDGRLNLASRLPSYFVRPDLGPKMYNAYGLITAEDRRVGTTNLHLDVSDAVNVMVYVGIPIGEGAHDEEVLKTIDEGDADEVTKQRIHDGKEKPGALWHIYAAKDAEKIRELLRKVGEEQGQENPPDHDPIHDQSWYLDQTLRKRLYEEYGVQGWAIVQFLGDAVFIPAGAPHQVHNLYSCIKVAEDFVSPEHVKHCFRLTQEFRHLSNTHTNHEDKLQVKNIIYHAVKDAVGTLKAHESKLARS
The test can be described thus: AlphaScreen KDM inhibition assay. Particulars: read-out: IC50 KDM3B (0.4 nM), enzyme 0.4 nM, means ± SD. Background: Bead proximity is the source of the signal in Alpha formats.

Another test deals with T4, KDM4D (Homo sapiens, UniProt Q6B0I6).
T4 construct: (M1-G373); His6 (N); made in house; host or cells: E. coli
T4 sequence (Q6B0I6 1-373): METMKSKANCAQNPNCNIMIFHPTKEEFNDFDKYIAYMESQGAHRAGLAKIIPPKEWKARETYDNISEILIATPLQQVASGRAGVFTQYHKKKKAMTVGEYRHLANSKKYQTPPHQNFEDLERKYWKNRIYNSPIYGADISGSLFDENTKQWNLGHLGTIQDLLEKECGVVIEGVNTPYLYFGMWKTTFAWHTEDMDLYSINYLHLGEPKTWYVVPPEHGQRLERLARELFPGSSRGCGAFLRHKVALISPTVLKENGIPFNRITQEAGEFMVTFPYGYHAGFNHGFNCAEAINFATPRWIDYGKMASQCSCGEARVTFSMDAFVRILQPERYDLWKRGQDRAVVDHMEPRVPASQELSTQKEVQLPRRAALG
The test can be described thus: AlphaScreen KDM inhibition assay. Particulars: read-out: IC50 KDM4D (2.0 nM), enzyme 2.0 nM, means ± SD.

The next test concerns the target FIH (Homo sapiens, UniProt Q9NWT6). The test can be described thus: RapidFire FIH inhibition assay. The note with it: read-out: IC50 FIH (50 nM); MS based; enzyme 50 nM; means ± SD. The method, then: The reported procedure was used.[28] Tris(hydroxymethyl)aminomethane was from Fisher; all other reagents were from Sigma-Aldrich and of the highest available purity. FAS was prepared freshly every day as a 400 mM stock solution in 20 mM HCl, and this was then diluted to 1 mM in deionized water. […] The synthetic “consensus” ankyrin repeat derived peptide ([…]-CONH2) was synthesized by GL Biochem (Shanghai) Ltd and dissolved to 1 mM in deionized water. […] After 15 min, the reaction was quenched by the addition of 4 μL of 10% (v/v) aqueous formic acid and the reaction was transferred to a RapidFire RF360 high throughput sampling robot. The samples were aspirated under vacuum onto a C4 solid-phase extraction (SPE) cartridge. After an aqueous washing step (0.1% formic acid), to remove nonvolatile buffer components from the C4 SPE cartridge, peptides were eluted in an organic washing step (85% (v/v) aqueous acetonitrile, 0.1% formic acid) and injected into an Agilent 6530 Q-TOF mass spectrometer. Ion chromatogram data were extracted for the nonhydroxylated peptide substrate and the hydroxylated peptide product; peak area data for the extracted ion chromatograms were integrated using RapidFire Integrator software. Percentage conversion of the substrate to the product was calculated in Microsoft excel, and IC50 curves were generated using GraphPad Prism 5.0.

SMILES strings stand for the structures. Where only a bound is given, the exact number is not on record here.

Sequence of FIH (Q9NWT6 whole entry): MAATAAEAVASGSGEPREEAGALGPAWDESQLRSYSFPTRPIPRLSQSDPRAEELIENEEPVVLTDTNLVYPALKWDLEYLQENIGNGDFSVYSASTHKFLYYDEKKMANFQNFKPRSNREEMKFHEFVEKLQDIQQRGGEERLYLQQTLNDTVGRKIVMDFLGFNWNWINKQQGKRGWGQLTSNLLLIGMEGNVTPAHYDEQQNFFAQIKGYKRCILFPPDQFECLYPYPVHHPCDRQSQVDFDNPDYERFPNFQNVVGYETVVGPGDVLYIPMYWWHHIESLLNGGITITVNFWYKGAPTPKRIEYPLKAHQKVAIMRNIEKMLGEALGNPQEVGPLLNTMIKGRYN
T2 sequence (Q92831 492-658): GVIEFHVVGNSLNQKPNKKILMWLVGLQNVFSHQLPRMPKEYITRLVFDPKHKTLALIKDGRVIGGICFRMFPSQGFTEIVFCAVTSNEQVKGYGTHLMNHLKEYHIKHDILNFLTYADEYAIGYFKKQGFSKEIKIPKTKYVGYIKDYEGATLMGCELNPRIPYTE

One may read the IC50 as the concentration at which inhibition is half-maximal. As to `O=C(O)c1c[nH]c(=S)[nH]c1=O` [compound 1], the remaining activity at 100 µM at p300 worked out at 98.7 ± 3%; on PCAF, 99.2 ± 2.7%. In addition, the IC50 on KDM3B was 53.2 ± 3 µM; at KDM4D, over 100 µM; on FIH, over 100 µM.
`CSc1ncc(C(=O)O)c(=O)[nH]1` [compound 2, 2-(Methylthio)-3,4-dihydro-4-oxopyrimidine-5-carboxylic Acid]: the remaining activity at 100 µM turned out to be 97.8 ± 3% on p300 and 100 ± 2.5% on PCAF. Also, the figures for the IC50 on KDM3B, on KDM4D and at FIH were 106 ± 6 µM, 31.9 ± 1 µM and 15.3 ± 0.9 µM, respectively.
The matching figures for `CCCCSc1ncc(C(=O)O)c(=O)[nH]1` [compound 3, 2-(Butylthio)-3,4-dihydro-4-oxopyrimidine-5-carboxylic Acid]: 103 ± 2%, 101 ± 3.7%, 62.1 ± 3 µM, 15.5 ± 0.8 µM and 15.9 ± 1.1 µM.
The matching figures for `CCCCCSc1ncc(C(=O)O)c(=O)[nH]1` [compound 4, 2-(Pentylthio)-3,4-dihydro-4-oxopyrimidine-5-carboxylic Acid]: 97.7 ± 3%, 100 ± 2.9%, 51.2 ± 3 µM, 27.5 ± 2 µM and 10.5 ± 0.8 µM.
For `CCCCCCCCCSc1ncc(C(=O)O)c(=O)[nH]1` [compound 5, 2-(Nonylthio)-3,4-dihydro-4-oxopyrimidine-5-carboxylic Acid], the remaining activity at 100 µM on p300 came to 106 ± 3.5%; on PCAF it was 104 ± 3.7%. The IC50 on KDM3B amounted to 66.8 ± 4 µM; on KDM4D, 19.8 ± 0.9 µM; at FIH, 4 ± 0.3 µM.
For the compound `O=C(O)c1cnc(SCC2CCCCC2)[nH]c1=O` [compound 6, 2-((Cyclohexylmethyl)thio)-3,4-dihydro-4-oxopyrimidine-5-carboxylic Acid], the remaining activity at 100 µM turned out to be 104 ± 4.1% at p300 and 99.2 ± 2.1% on PCAF. The IC50 at KDM3B worked out at 47.6 ± 4 µM; on KDM4D, 30.3 ± 3 µM; at FIH, 7.8 ± 0.6 µM.
Taken in the same sequence, the figures for `O=C(O)c1cnc(SCc2ccccc2)[nH]c1=O` [compound 7, 2-(Benzylthio)-3,4-dihydro-4-oxopyrimidine-5-carboxylic Acid] were 107 ± 3.8%, 101 ± 2.9%, over 100 µM, 34.7 ± 1.6 µM and 20.2 ± 1.6 µM.
Taken in the same sequence, the figures for `O=C(CSc1ncc(C(=O)O)c(=O)[nH]1)c1ccccc1` [compound 8, 2-((2-Oxo-2-phenylethyl)thio)-3,4-dihydro-4-oxopyrimidine-5-carboxylic Acid] were 106 ± 3.5%, 103 ± 3.7%, 56.2 ± 4 µM, 26.7 ± 1.9 µM and 19.4 ± 1.4 µM.
Taken in the same sequence, the figures for `O=C(O)c1cnc(SCCc2ccccc2)[nH]c1=O` [compound 9, 2-(Phenethylthio)-3,4-dihydro-4-oxopyrimidine-5-carboxylic Acid] were 107 ± 4.8%, 102 ± 2.1%, 54.2 ± 2 µM, 30.8 ± 2.2 µM and 23.8 ± 1.4 µM.
Take `O=C(O)c1cnc(SCCCc2ccccc2)[nH]c1=O` [compound 10, 2-((3-Phenylpropyl)thio)-3,4-dihydro-4-oxopyrimidine-5-carboxylic Acid]: the remaining activity at 100 µM on p300 amounted to 97.9 ± 2%; at PCAF it was 101 ± 2.7%. Besides, the IC50 at KDM3B stood at 57.5 ± 3.8 µM; at KDM4D it was 59.1 ± 3.9 µM; at FIH it was 29.8 ± 2 µM.
Consider `O=C(O)c1cnc(SCCCCc2ccccc2)[nH]c1=O` [compound 11, 2-((4-Phenylbutyl)thio)-3,4-dihydro-4-oxopyrimidine-5-carboxylic Acid], for which the remaining activity at 100 µM at p300 stood at 98.6 ± 2.2%; on PCAF, 100 ± 3.7%. The IC50 on KDM3B came out at 65.9 ± 4.5 µM; on KDM4D, 26 ± 1.5 µM; on FIH it was 19.2 ± 1.2 µM.
The matching figures for `CCOC(=O)/C=C\Sc1ncc(C(=O)O)c(=O)[nH]1` [compound 12, (Z)-2-((3-Ethoxy-3-oxoprop-1-en-1-yl)thio)-3,4-dihydro-4-oxopyrimidine-5-carboxylic Acid]: 104 ± 4.1%, 103 ± 2.3%, 26.7 ± 2 µM, 22 ± 1.2 µM and 30.1 ± 2 µM.
Taken in the same sequence, the figures for `O=C(O)/C=C\Sc1ncc(C(=O)O)c(=O)[nH]1` [compound 13, (Z)-2-((2-carboxyvinyl)thio)-3,4-dihydro-4-oxopyrimidine-5-carboxylic Acid] were 107 ± 4.2%, 104 ± 4.1%, 63.7 ± 4 µM, 123 ± 8 µM and 86.6 ± 4.2 µM.
